Assay: mn = molality of the nth substance listed, in mol/kg
Details: 101 kPa, Liquid, Alternating current cell with electrodes

C[N+](C)(C)CCO.O=C([O-])C(F)(F)C(F)(F)C(F)(F)C(F)(F)C(F)(F)C(F)(F)F [(2-hydroxyethyl)trimethylammonium perfluoroheptanoate] + O
Details | electrical conductivity [S/m]
293.15 K, m1 = 0.000135 | 0.0009
293.15 K, m1 = 0.000317 | 0.002
293.15 K, m1 = 0.000535 | 0.0035
293.15 K, m1 = 0.000719 | 0.0047
293.15 K, m1 = 0.000905 | 0.0059
293.15 K, m1 = 0.001097 | 0.0071
293.15 K, m1 = 0.001295 | 0.0083
293.15 K, m1 = 0.001556 | 0.01
293.15 K, m1 = 0.001738 | 0.0112
293.15 K, m1 = 0.001921 | 0.0124
293.15 K, m1 = 0.002361 | 0.0151
293.15 K, m1 = 0.002553 | 0.0164
293.15 K, m1 = 0.002745 | 0.0179
293.15 K, m1 = 0.002967 | 0.0189
293.15 K, m1 = 0.003167 | 0.0201
293.15 K, m1 = 0.003365 | 0.021
293.15 K, m1 = 0.003617 | 0.0224
293.15 K, m1 = 0.003811 | 0.0234
293.15 K, m1 = 0.003989 | 0.0244
293.15 K, m1 = 0.004235 | 0.0259
293.15 K, m1 = 0.004463 | 0.0271
293.15 K, m1 = 0.004647 | 0.0283
293.15 K, m1 = 0.005243 | 0.0318
293.15 K, m1 = 0.00563 | 0.0339
293.15 K, m1 = 0.006196 | 0.037
293.15 K, m1 = 0.006659 | 0.0405
293.15 K, m1 = 0.006813 | 0.0416
293.15 K, m1 = 0.007215 | 0.0437
293.15 K, m1 = 0.007673 | 0.0468
293.15 K, m1 = 0.007989 | 0.0489
298.15 K, m1 = 0.000182 | 0.0012
298.15 K, m1 = 0.000351 | 0.0023
298.15 K, m1 = 0.000524 | 0.0036
298.15 K, m1 = 0.000696 | 0.0048
298.15 K, m1 = 0.000849 | 0.0059
298.15 K, m1 = 0.001022 | 0.0071
298.15 K, m1 = 0.001139 | 0.0079
298.15 K, m1 = 0.001334 | 0.0092
298.15 K, m1 = 0.001552 | 0.0107
298.15 K, m1 = 0.001763 | 0.0123
298.15 K, m1 = 0.001988 | 0.014
298.15 K, m1 = 0.002225 | 0.0158
298.15 K, m1 = 0.002433 | 0.0172
298.15 K, m1 = 0.002631 | 0.0186
298.15 K, m1 = 0.00283 | 0.0198
298.15 K, m1 = 0.003092 | 0.0212
298.15 K, m1 = 0.003297 | 0.0222
298.15 K, m1 = 0.003578 | 0.0237
298.15 K, m1 = 0.003893 | 0.0254
298.15 K, m1 = 0.004239 | 0.0271
298.15 K, m1 = 0.004535 | 0.0288
298.15 K, m1 = 0.004786 | 0.0303
298.15 K, m1 = 0.00505 | 0.0318
298.15 K, m1 = 0.005319 | 0.0333
298.15 K, m1 = 0.005529 | 0.0345
298.15 K, m1 = 0.005823 | 0.0361
303.15 K, m1 = 0.000162 | 0.0014
303.15 K, m1 = 0.000327 | 0.0027
303.15 K, m1 = 0.000396 | 0.0031
303.15 K, m1 = 0.000558 | 0.0045
303.15 K, m1 = 0.000597 | 0.0046
303.15 K, m1 = 0.000902 | 0.0068
303.15 K, m1 = 0.001056 | 0.0084
303.15 K, m1 = 0.001145 | 0.0088
303.15 K, m1 = 0.001333 | 0.0102
303.15 K, m1 = 0.001525 | 0.0116
303.15 K, m1 = 0.001575 | 0.0126
303.15 K, m1 = 0.001779 | 0.0138
303.15 K, m1 = 0.001975 | 0.0164
303.15 K, m1 = 0.00219 | 0.0173
303.15 K, m1 = 0.002392 | 0.0187
303.15 K, m1 = 0.002573 | 0.0201
303.15 K, m1 = 0.002757 | 0.0218
303.15 K, m1 = 0.003 | 0.0233
303.15 K, m1 = 0.003295 | 0.0254
303.15 K, m1 = 0.003479 | 0.0262
303.15 K, m1 = 0.003569 | 0.0269
303.15 K, m1 = 0.00377 | 0.0282
303.15 K, m1 = 0.00395 | 0.0297
303.15 K, m1 = 0.004136 | 0.0313
303.15 K, m1 = 0.004356 | 0.033
303.15 K, m1 = 0.00458 | 0.0343
303.15 K, m1 = 0.004761 | 0.0357
303.15 K, m1 = 0.005083 | 0.0368
308.15 K, m1 = 0.000308 | 0.0028
308.15 K, m1 = 0.001088 | 0.0096
308.15 K, m1 = 0.001458 | 0.0131
308.15 K, m1 = 0.001696 | 0.0151
308.15 K, m1 = 0.001932 | 0.0174
308.15 K, m1 = 0.002314 | 0.0204
308.15 K, m1 = 0.002768 | 0.0243
308.15 K, m1 = 0.002948 | 0.0255
308.15 K, m1 = 0.003212 | 0.0279
308.15 K, m1 = 0.003414 | 0.0297
308.15 K, m1 = 0.003749 | 0.0324
308.15 K, m1 = 0.004024 | 0.0348
308.15 K, m1 = 0.004369 | 0.037
308.15 K, m1 = 0.004622 | 0.0392
308.15 K, m1 = 0.004874 | 0.0413
308.15 K, m1 = 0.00517 | 0.0438
308.15 K, m1 = 0.005462 | 0.0462
313.15 K, m1 = 0.000152 | 0.0016
313.15 K, m1 = 0.000311 | 0.0032
313.15 K, m1 = 0.000509 | 0.005
313.15 K, m1 = 0.000756 | 0.0072
313.15 K, m1 = 0.000952 | 0.0094
313.15 K, m1 = 0.001127 | 0.0112
313.15 K, m1 = 0.001383 | 0.0138
313.15 K, m1 = 0.001573 | 0.0155
313.15 K, m1 = 0.001796 | 0.0179
313.15 K, m1 = 0.001971 | 0.0201
313.15 K, m1 = 0.002233 | 0.0227
313.15 K, m1 = 0.002359 | 0.0239
313.15 K, m1 = 0.002573 | 0.0262
313.15 K, m1 = 0.002937 | 0.0297
313.15 K, m1 = 0.003135 | 0.0321
313.15 K, m1 = 0.003363 | 0.0336
313.15 K, m1 = 0.003618 | 0.0359
313.15 K, m1 = 0.003798 | 0.0379
313.15 K, m1 = 0.003983 | 0.0396
313.15 K, m1 = 0.004151 | 0.0413
313.15 K, m1 = 0.004487 | 0.0444
313.15 K, m1 = 0.004771 | 0.0466
313.15 K, m1 = 0.00507 | 0.0489
313.15 K, m1 = 0.005297 | 0.0508
313.15 K, m1 = 0.005682 | 0.0543
